Here are results for 32 compounds from US6747147B2, “Oxo-azabicyclic compounds” (Warner-Lambert Company, priority 2002, dated 2004).

Molecules are shown by their SMILES. Where a name gives a salt, the structure may show the parent alone.

The first test deals with T1, catalytic domain of human MMP-13 (Homo sapiens, UniProt P45452).
T1 construct: the catalytic domain of human MMP-13
Nature of the test: Inhibition of proteolysis of a thioester peptide substrate by MMP-13. Type of test: biochemical.
Conditions: not given
The protocol: Evaluation of the in vitro activity of the MMP-13 inhibitor compounds according to the invention.
The inhibitory activity of the compounds of formula (I) according to the invention with respect to matrix metalloprotease-13 is evaluated by testing the ability of the compounds of the invention to inhibit the proteolysis of a peptide substrate with MMP-13.
The peptide substrate used in the test is the following peptide: Ac-Pro-Leu-Gly-thioester-Leu-Leu-Gly-OEt.
To carry out this test, a reaction medium of 100 μl volume is prepared, containing: 50 mM of HEPES buffer, 10 mM of CaCl2 and 1 mM of 5,5′-dithiobis-(2-nitrobenzoic acid) (DTNB), and 100 μM of substrate, the pH being adjusted to 7.0.
The concentrations of inhibitors present in the test samples range from 100 μM to 0.5 nM.
The IC50 values are calculated from a curve in which the percentage of the catalytic activity relative to the control is represented on the X-axis and the concentration of inhibitor is represented on the Y-axis.
`N#Cc1ccc(Cn2cnc3ccc(C#CCc4ccccc4)cc3c2=O)cc1` [Example 60, 4-[4-Oxo-6-(3-phenyl-prop-1-ynyl)-4H-quinazolin-3-ylmethyl]-benzonitrile]: the IC50 (in general, the concentration that gives 50% inhibition) was less than 1000 nM.
On the same count and under the same terms, as for `O=C(O)c1ccc(Cn2cnc3ccc(C#CCN4CCCCC4)cc3c2=O)cc1` [Example 107, 4-[4-Oxo-6-(3-piperidin-1-yl-prop-1-ynyl)-4H-quinazolin-3-ylmethyl]-benzoic acid trifluoroacetic acid salt], the figure is not below 65000 nM; as for `O=c1c2cc(C#CCc3ccccc3)ccc2ncn1Cc1ccc(F)cc1` [Example 8, 3-(4-fluorobenzyl)-6-(3-phenyl-pro-1-ynyl)-3 H-quinazolin-4-one], less than 1000 nM.
On the same count and under the same terms, as for `O=c1c2cc(C#CCc3ccccc3)ccc2ncn1Cc1cccc(Cl)c1` [Example 62, 3-(3-Chloro-benzyl)-6-(3-phenyl-prop-1-ynyl)-3H-quinazolin-4-one], the figure is less than 1000 nM.
On the same count and under the same terms, as for `COC(=O)c1ccc(Cn2cnc3ccc(C#CCc4ccccc4)cc3c2=O)cc1` [Example 9, Methyl 4-[4-Oxo-6-(3-phenyl-prop-1-ynyl)-4H-quinazolin-3-ylmethyl]-benzoate], the figure is less than 1000 nM.
With `NS(=O)(=O)c1ccc(Cn2cnc3ccc(C#CCc4ccccc4)cc3c2=O)cc1` [Example 59, 4-[4-Oxo-6-(3-phenyl-prop-1-ynyl)-4H-quinazolin-3-ylmethyl]-benzenesulfonamide], the IC50 is less than 1000 nM.
Same read-out and setting: as for `O=C(O)c1ccc(Cn2cnc3ccc(C#CCN4CCOCC4)cc3c2=O)cc1` [Example 106, 4-[6-(3-Morpholin-4-yl-prop-1-ynyl)-4-oxo-4H-quinazolin-3-ylmethyl]-benzoic acid trifluoroacetic acid salt], the figure is not below 65000 nM.

Staying with this test, now noted: substrate Ac-Pro-Leu-Gly-thioester-Leu-Leu-Gly-OEt 100 μM, pH 7.0, 2.5 nM enzyme; read-out: IC50 values on MMP-13.
As for `COc1ccc(CNC(=O)c2ccc3nc(C)n(Cc4ccc(OC)cc4)c(=O)c3c2)cc1` [Example 2, 3-(4-Methoxy-benzyl)-2-methyl-4-oxo-3,4-dihydro-quinazoline-6-carboxylic acid 4-methoxy-benzylamide, hydrochloride], the IC50 is less than 1000 nM.
Still for that read-out and setting: as for `COc1ccc(CC#Cc2ccc3ncn(Cc4ccc(F)c(F)c4)c(=O)c3c2)cc1` [Example 66, 3-(3,4-Difluoro-benzyl)-6-[3-(4-methoxy-phenyl)-prop-1-ynyl]-3H-quinazolin-4-one], the figure is less than 1000 nM; as for `COc1cc(CNC(=O)c2ccc3ncn(Cc4ccc(F)c(F)c4)c(=O)c3c2)ccn1` [Example 104, 3-(3,4-Difluoro-benzyl)-4-oxo-3,4-dihydro-quinazoline-6-carboxylic acid (2-methoxy-pyridin-4-ylmethyl)-amide], less than 1000 nM.
Still for that read-out and setting: as for `O=c1c2cc(C#CCc3ccccc3)ccc2ncn1Cc1ccncc1` [Example 70, 6-(3-Phenyl-prop-1-ynyl)-3-pyridin-4-ylmethyl-3H-quinazolin-4-one], the figure is less than 1000 nM; as for `COc1ccc(CNC(=O)c2ccc3c(c2)C(=O)N(Cc2ccc(C(=O)O)cc2)CN3C)cc1` [Example 7, 4-[6-(4-Methoxy-benzylcarbamoyl)-1-methyl-4-oxo-1,4-dihydro-2H-quinazolin-3-ylmethyl]-benzoic acid], less than 1000 nM; as for `COc1ccc(CC#Cc2ccc3ncn(Cc4ccncc4)c(=O)c3c2)cc1` [Example 71, 6-[3-(4-Methoxy-phenyl)-prop-1-ynyl]-3-pyridin-4-ylmethyl-3H-quinazolin-4-one], less than 1000 nM.
The same measure, in the same setting: as for `CN1CCN(CC#Cc2ccc3ncn(Cc4ccc(C(=O)O)cc4)c(=O)c3c2)CC1` [Example 108, 4-{6-[3-(4-Methyl-piperazin-1-yl)-prop-1-ynyl]-4-oxo-4H-quinazolin-3-ylmethyl}-benzoic acid trifluoroacetic acid salt], the figure is not below 65000 nM; as for `COc1ccc(CNC(=O)c2ccc3c(c2)C(=O)N(Cc2ccc(OC)cc2)C(C)(C)N3C)cc1` [Example 4, 3-(4-Methoxy-benzyl)-1,2,2-trimethyl-4-oxo-1,2,3,4-tetrahydro-quinazoline-6-carboxylic acid 4-methoxy-benzylamide], less than 1000 nM.
Regarding `COc1ccc(CNC(=O)c2cc3c(=O)n(Cc4cccc(F)c4)cnc3cn2)cc1` [Example 24, 3-(3-Fluoro-benzyl)-4-oxo-3,4-dihydro-pyrido[3,4-d]pyrimidine-6-carboxylic acid 4-methoxy-benzylamide], the concentration for half-maximal inhibition (IC50) was less than 1000 nM.
For the compound `COc1ccc(CC#Cc2ccc3ncn(Cc4ccc(C(C)=O)cc4)c(=O)c3c2)cc1` [Example 69, 3-(4-Acetyl-benzyl)-6-[3-(4-methoxy-phenyl)-prop-1-ynyl]-3H-quinazolin-4-one], the half-inhibitory concentration (IC50) was less than 1000 nM.
Take `COc1ccc(CNC(=O)c2ccc3ncn(Cc4ccc(OC)cc4)c(=O)c3c2)cc1` [Example 1, 3-(4-Methoxy-benzyl)-4-oxo-3,4-dihydro-quinazoline-6-carboxylic acid 4-methoxy-benzylamide]: the IC50 was less than 1000 nM.
Turning to `COc1ccc(CNC(=O)c2ccc3ncn(Cc4ccc(S(C)(=O)=O)cc4)c(=O)c3c2)cc1` [Example 15], the IC50 is less than 1000 nM.
As for `COc1cccc(CNC(=O)c2ccc3ncn(Cc4ccc(C(=O)O)cc4)c(=O)c3c2)c1` [Example 17, 4-[6-(3-Methoxy-benzylcarbamoyl)-4-oxo-4H-quinazolin-3-ylmethyl]-benzoic acid], the 50% inhibitory concentration (IC50) was less than 1000 nM.
With `O=C(O)c1ccc(Cn2cnc3ccc(C#CCN4Cc5ccccc5C4)cc3c2=O)cc1` [Example 109, 4-{6-[3-(1,3-Dihydro-isoindol-2-yl)-prop-1-ynyl]-4-oxo-4H-quinazolin-3-ylmethyl}-benzoic acid trifluoroacetic acid], the IC50 was less than 1000 nM.
On the same count and under the same terms, as for `O=c1c2cc(C#CCOc3ccncc3)ccc2ncn1Cc1ccc(F)c(F)c1` [Example 65, 3-(3,4-Difluoro-benzyl)-6-[3-(pyridin-4-yloxy)-prop-1-ynyl]-3H-quinazolin-4-one], the figure is less than 1000 nM; as for `COC(=O)c1ccc(CN2CN(C)c3ccc(C(=O)NCc4ccc(OC)cc4)cc3C2=O)cc1` [Example 6, Methyl 4-[6-(4-Methoxy-benzylcarbamoyl)-1-methyl-4-oxo-1,4-dihydro-2H-quinazolin-3-ylmethyl]-benzoate], less than 1000 nM; as for `COc1ccc(CNC(=O)c2ccc3ncn(Cc4ccc(S(=O)(=O)N5CCCC5)cc4)c(=O)c3c2)cc1` [Example 16, 4-Oxo-3-[4-(pyrrolidine-1-sulfonyl)-benzyl]-3,4-dihydro-quinazoline-6-carboxylic acid 4-methoxy-benzylamide], less than 1000 nM.
Still for that read-out and setting: as for `COc1ccc(CNC(=O)c2ccc3ncn(Cc4ccc(F)c(F)c4)c(=O)c3c2)cc1` [Example 105, 3-(3,4-Difluoro-benzyl)-4-oxo-3,4-dihydro-quinazoline-6-carboxylic acid 4-methoxy-benzylamide], the figure is less than 1000 nM.
Turning to `COc1ccc(CNC(=O)c2ccc3c(c2)C(=O)N(Cc2ccc(C(=O)O)cc2)CN3)cc1` [Example 5, 4-[6-(4-Methoxy-benzylcarbamoyl)-4-oxo-1,4-dihydro-2H-quinazolin-3-ylmethyl]-benzoic acid], the IC50 was less than 1000 nM.
On the same count and under the same terms, as for `COc1ccc(CNC(=O)c2ccc3c(c2)C(=O)N(Cc2ccc(OC)cc2)CN3C)cc1` [Example 3, 3-(4-Methoxy-benzyl)-1-methyl-4-oxo-1,2,3,4-tetrahydro-quinazoline-6-carboxylic acid 4-methoxy-benzylamide], the figure is less than 1000 nM; as for `COc1cccc(CNC(=O)c2cc3c(=O)n(Cc4cccc(F)c4)cnc3cn2)c1` [Example 23, 3-(3-Fluoro-benzyl)-4-oxo-3,4-dihydro-pyrido[3,4-d]pyrimidine-6-carboxylic acid 3-methoxy-benzylamide], less than 1000 nM; as for `CC(=O)Nc1ccc(Cn2cnc3ccc(C#CCc4ccccc4)cc3c2=O)cc1` [Example 67, N-{4-[4-Oxo-6-(3-phenyl-prop-1-ynyl)-4H-quinazolin-3-ylmethyl]-phenyl}-acetamide], less than 1000 nM.
The same measure, in the same setting: as for `O=c1c2cc(C#CCc3ccccc3)ccc2ncn1Cc1ccc(F)c(F)c1` [Example 68, 3-(3,4-Difluoro-benzyl)-6-(3-phenyl-prop-1-ynyl)-3H-quinazolin-4-one], the figure is less than 1000 nM.
Take `COc1cc(CNC(=O)c2ccc3ncn(Cc4ccc(F)cc4)c(=O)c3c2)ccn1` [Example 21, 3-(4-Fluoro-benzyl)-4-oxo-3,4-dihydro-quinazoline-6-carboxylic acid (2-methoxy-pyridin-4-ylmethyl)-amide]: the IC50 is less than 1000 nM.
Turning to `COc1cccc(CNC(=O)c2ccc3ncn(Cc4ccc(F)cc4)c(=O)c3c2)c1` [Example 14, 3-(4-Fluoro-benzyl)-4-oxo-3,4-dihydro-quinazoline-6-carboxylic acid 3-methoxy-benzylamide], the IC50 was less than 1000 nM.
